Tests used:
CD-1 mice = test: RBT-3 preconditioning: cisplatin nephrotoxicity and renal cisplatin uptake; format: in vivo; conditions: cisplatin 15 mg/Kg IP ± 1 mg RBT-3 IV 18 hrs before, 3 days post cisplatin, mean ± SEM
Method: 4. […] Mice were injected with 1 mg RBT-3 or saline vehicle via the tail vein (n, 5 each). […] Free food and water were provided throughout. […] Plasma levels of the proximal tubule enzyme, N-acetyl glucosamidase (“NAG”), were also assessed (BioAssay Systems #DNAG-100; Hayward, Calif.). […] Statistics. Each sample was assayed in duplicate with the average being used for data presentation and analysis. The human hepcidin data are presented as means±1 SD. Baseline plasma hepcidin values for the HV and CKD groups were compared by unpaired Student's t test. Comparisons of hepcidin levels over time were analyzed by ANOVA for repeated measures with 95% confidence intervals being presented. Baseline demographic data were compared by unpaired Student's t test. Mouse data are given as means±1 SEM.

mice = test: SnPP preconditioning against cisplatin nephrotoxicity; format: in vivo; parameters: P creatinine: unit not given here
[1] = SnPP 1 umole or vehicle day zero, cisplatin 15 mg/kg day 1, 3 days post cisplatin

| Structure (SMILES) | BUN (CD-1 mice) [mg/dL] | Creat (CD-1 mice) [mg/dL] | Plasma NAG (CD-1 mice) [activity units/liter] | HO-1 mRNA (mice; 3 days post cisplatin) | IL-6 mRNA (mice; 3 days post cisplatin) | MCP-1 mRNA (mice; 3 days post cisplatin) | NGAL mRNA (mice; 3 days post cisplatin) | P21 mRNAs (mice; 3 days post cisplatin) | BUN (mice; [1]) | P creatinine (mice; [1]) | Tissue LDH (mice; renal cortical, 3 days post cisplatin) | protection in cisplatin treated mice, compared to cisplatin alone (mice; P<0.01) |
| --- | --- | --- | --- | --- | --- | --- | --- | --- | --- | --- | --- | --- |
| N.N.[Cl][Pt][Cl] [Cisplatin, cis-diammine dichloroplatinum II] | 105 ± 11 | 0.7 ± 0.1 | 19.5 ± 0.8 | 1.16 ± 0.28 | 2.51 ± 1.65 | 10.9 ± 5.7 | 16.9 ± 12 | 4.23 ± 0.61 | 103 ± 22 | 0.94 ± 0.41 | 754 ± 54 | – |
| C=Cc1c2[n-]c(c1C)/C=c1\[n-]/c(c(C)c1C=C)=C\c1[n-]c(c(CCC(=O)O)c1C)/C=c1\[n-]c(c(C)c1CCC(=O)O)=C2.[Sn+4] [SnPP, tin protoporphyrin] | – | – | – | – | – | – | – | – | – | – | – | statistically significant protection |
